ChEMBL document CHEMBL2021794, “Synthesis, σ₁, σ₂-receptors binding affinity and antiproliferative action of new C1-substituted adamantanes” (Bioorg Med Chem, 2012)

Tests used:
[1] = (§1) Growth inhibition of NHDF cells after 48 hrs by SRB assay; assay type: cell-based; settings: human, NHDF cells
NHDF = experiment: as §1; assay type: cell-based; settings: human, nhdf, 48 h
NCI-H69 = experiment: Growth inhibition of human NCI-H69 cells after 48 hrs by SRB assay; assay type: functional; settings: NCI-H69, 48 h; for CC50: read-out: LC50 (the source's name)
BXPC-3 [2] = experiment: Growth inhibition of human BxPC3 cells after 48 hrs by SRB assay; assay type: functional; settings: BXPC-3, 48 h
[3] = Selectivity ratio of IC50 for human sigma-1 receptor to IC50 for rat sigma-2 receptor
NCI-H460 = experiment: Growth inhibition of human NCI-H460 cells after 48 hrs by SRB assay; assay type: functional; settings: NCI-H460, 48 h
U-251 = experiment: Growth inhibition of human U251 cells after 48 hrs by SRB assay; assay type: functional; settings: U-251, 48 h; for CC50: read-out: LC50 (the source's name)
[4] = biological target: Sigma non-opioid intracellular receptor 1 (Homo sapiens, UniProt Q99720); experiment: Displacement of [3H](+)pentazocine from sigma-1 receptor expressed in human Jurkat cell membranes after 2 hrs by liquid scintillation spectroscopy
IGROV-1 = experiment: Growth inhibition of human IGROV1 cells after 48 hrs by SRB assay; assay type: functional; settings: IGROV-1, 48 h; for CC50: read-out: LC50 (the source's name)
SK-HEP1 = experiment: Growth inhibition of human SKHEP1 cells after 48 hrs by SRB assay; assay type: functional; settings: SK-HEP1, 48 h; for CC50: read-out: LC50 (the source's name)
LOX IMVI = experiment: Growth inhibition of human LOXIMVI cells after 48 hrs by SRB assay; assay type: functional
DU-145 = experiment: Growth inhibition of human DU145 cells after 48 hrs by SRB assay; assay type: functional; settings: DU-145, 48 h; for CC50: read-out: LC50 (the source's name)
[5] = Growth inhibition of human MSC cells after 48 hrs by SRB assay; assay type: cell-based; settings: for GI50 at 48 h: MSC cells; for LC50 / TGI: msc, 48 h
HL-60(TB) = experiment: Growth inhibition of human HL-60(TB) cells after 48 hrs by SRB assay; assay type: functional; settings: HL-60, 48 h
[6] = Displacement of [3H](+)1-DTG from sigma-2 receptor expressed in rat cerebral cortex membranes after 2 hrs by liquid scintillation spectroscopy; assay type: cell membranes, Membrane
SF-295 = experiment: Growth inhibition of human SF295 cells after 48 hrs by SRB assay; assay type: functional; settings: SF-295, 48 h; for CC50: read-out: LC50 (the source's name)
[7] = Displacement of [3H]BTX-B from Na+ channel site 2 after 60 mins by liquid scintillation spectroscopy
HUVEC = experiment: (§2) Growth inhibition of HUVEC cells after 48 hrs by SRB assay; assay type: cell-based; settings: human, huvec, 48 h
[8] = as §2; assay type: cell-based; settings: human, HUVEC cells
SF-268 = experiment: Growth inhibition of human SF268 cells after 48 hrs by SRB assay; assay type: functional; settings: SF-268, 48 h; for CC50: read-out: LC50 (the source's name)
DMS-114 = experiment: Growth inhibition of human DMS114 cells after 48 hrs by SRB assay; assay type: functional; settings: DMS-114, 48 h; for CC50: read-out: LC50 (the source's name)
HCT-116 = experiment: Growth inhibition of human HCT116 cells after 48 hrs by SRB assay; assay type: functional; settings: HCT-116, 48 h; for CC50: read-out: LC50 (the source's name)
H69AR = experiment: Growth inhibition of human H69AR cells after 48 hrs by SRB assay; assay type: functional; settings: for CC50: read-out: LC50 (the source's name)
OVCAR-5 = experiment: Growth inhibition of human OVCAR5 cells after 48 hrs by SRB assay; assay type: functional; settings: OVCAR-5, 48 h; for CC50: read-out: LC50 (the source's name)
MCF7 = experiment: Growth inhibition of human MCF7 cells after 48 hrs by SRB assay; assay type: functional; settings: MCF7, 48 h; for CC50: read-out: LC50 (the source's name)
HCT-15 = experiment: Growth inhibition of human HCT15 cells after 48 hrs by SRB assay; assay type: functional; settings: HCT-15, 48 h
PC-3 = experiment: Growth inhibition of human PC3 cells after 48 hrs by SRB assay; assay type: functional; settings: PC-3, 48 h; for CC50: read-out: LC50 (the source's name)
BXPC-3 [9] = experiment: Antitumor activity against human BxPC3 cells xenografted in SCID mouse assessed as reduction in tumor volume at 17 mg/kg, ip twice a week; assay type: functional; settings: BXPC-3, ip, route intraperitoneal
BXPC-3 [10] = experiment: Antitumor activity against human BxPC3 cells xenografted in SCID mouse assessed as tumor weight at 17 mg/kg, ip twice a week (reference value: 723 +/- 45 mg); assay type: functional; settings: route intraperitoneal
MIA PaCa-2 = experiment: Growth inhibition of human MIAPaCa2 cells after 48 hrs by SRB assay; assay type: functional; settings: MIA PaCa-2, 48 h; for CC50: read-out: LC50 (the source's name)

Chain of Sigma non-opioid intracellular receptor 1 (Q99720 whole entry): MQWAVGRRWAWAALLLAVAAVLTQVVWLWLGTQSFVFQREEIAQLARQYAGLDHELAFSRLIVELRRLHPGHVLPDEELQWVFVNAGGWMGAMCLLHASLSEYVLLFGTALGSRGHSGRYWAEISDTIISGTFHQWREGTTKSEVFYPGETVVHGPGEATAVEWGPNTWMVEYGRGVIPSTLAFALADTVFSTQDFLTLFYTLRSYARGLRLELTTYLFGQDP

For CCN1CCN(c2ccc(C(c3ccccc3)C34CC5CC(CC(C5)C3)C4)cc2)CC1 (stereo not given), the GI50 at 48 h [1] was 7.43 µM, the LC50 (NHDF) was 100 µM and the TGI (NHDF) was 100 µM. The GI50 (NCI-H69) was 5.54 µM, the CC50 (NCI-H69) was 100 µM and the GI50 (BXPC-3 [2]) was 7.07 µM. For the same compound, the LC50 (BXPC-3 [2]) was greater than 100 µM, the TGI (BXPC-3 [2]) was 41.6 µM and the Ratio IC50 [3] was 1.4. It also gave a GI50 (NCI-H460) of 5.77 µM, an LC50 (concentration killing 50% of cells) (NCI-H460) of 100 µM and a TGI (NCI-H460) of 9.44 µM. For the same compound, the GI50 (U-251) was 4.23 µM, the TGI (U-251) was 7.42 µM and the CC50 (U-251) was 12 µM. The IC50 [4] was 0.0029 µM, the GI50 (IGROV-1) was 8 µM and the TGI (IGROV-1) was 49 µM. It also gave a CC50 (IGROV-1) of 100 µM, a GI50 (SK-HEP1) of 3.98 µM and a TGI (SK-HEP1) of 7.24 µM. It also gave a CC50 (SK-HEP1) of 29.8 µM, a GI50 (LOX IMVI) of 3.79 µM and an LC50 (concentration killing 50% of cells) (LOX IMVI) of 8.4 µM. It also gave a TGI (LOX IMVI) of 6.09 µM, a GI50 (DU-145) of 17.8 µM and a TGI (DU-145) of 58.7 µM. For the same compound, the CC50 (DU-145) was 99.6 µM, the GI50 at 48 h [5] was 19.5 µM and the LC50 [5] was 100 µM. The TGI [5] was 72 µM, the GI50 (HL-60(TB)) was 6.39 µM and the LC50 (HL-60(TB)) was 100 µM. The TGI (HL-60(TB)) was 100 µM, the IC50 [6] was 0.004 µM and the GI50 (SF-295) was 19.6 µM. The TGI (SF-295) was 50.9 µM, the CC50 (SF-295) was 82.2 µM and the IC50 [7] was 0.7 µM. It also gave an LC50 (HUVEC) of 9.88 µM, a TGI (HUVEC) of 6.72 µM and a GI50 at 48 h [8] of 3.56 µM. The GI50 (SF-268) was 8.24 µM, the TGI (SF-268) was 53.5 µM and the CC50 (SF-268) was 100 µM. For the same compound, the GI50 (DMS-114) was 6.05 µM, the TGI (DMS-114) was 11.6 µM and the CC50 (DMS-114) was 20.3 µM. For the same compound, the GI50 (HCT-116) was 6.39 µM, the TGI (HCT-116) was 32.9 µM and the CC50 (HCT-116) was 100 µM. For the same compound, the GI50 (H69AR) was 4.75 µM, the TGI (H69AR) was 7.82 µM and the CC50 (H69AR) was 100 µM. The GI50 (OVCAR-5) was 6 µM, the TGI (OVCAR-5) was 24.5 µM and the CC50 (OVCAR-5) was 77.8 µM. It also gave a GI50 (MCF7) of 9.23 µM, a TGI (MCF7) of 59 µM and a CC50 (MCF7) of 100 µM. For the same compound, the GI50 (HCT-15) was 6.63 µM, the LC50 (HCT-15) was 100 µM and the TGI (HCT-15) was 41.2 µM. It also gave a GI50 (PC-3) of 9.01 µM, a TGI (PC-3) of 65.6 µM and a CC50 (PC-3) of 100 µM.

Work on O=c1[nH]cc(F)c(=O)[nH]1 [FLUOROURACIL] yielded a GI50 (NCI-H69) of 100 µM, a TGI (NCI-H69) of 100 µM and a CC50 (NCI-H69) of 100 µM. For the same compound, the GI50 (BXPC-3 [2]) was 8.2 µM, the TGI (BXPC-3 [2]) was 100 µM and the inhibition in vivo at 17 mg/kg (BXPC-3 [9]) was 3.25%. It also gave a GI50 (NCI-H460) of 6.5 µM, a TGI (NCI-H460) of 100 µM and a GI50 (U-251) of 82 µM. It also gave a TGI (U-251) of 100 µM, a CC50 (U-251) of 100 µM and an Activity (BXPC-3 [10]) of 700%. It also gave a GI50 (IGROV-1) of 9.1 µM, a TGI (IGROV-1) of 100 µM and a CC50 (IGROV-1) of 100 µM. The GI50 (SK-HEP1) was 6.3 µM, the TGI (SK-HEP1) was 100 µM and the CC50 (SK-HEP1) was 100 µM. It also gave a GI50 (DU-145) of 9.37 µM, a TGI (DU-145) of 100 µM and a CC50 (DU-145) of 100 µM. The GI50 at 48 h [5] was 8.92 µM, the LC50 [5] was 100 µM and the TGI [5] was 86.06 µM. It also gave a GI50 (MIA PaCa-2) of 30 µM, a TGI (MIA PaCa-2) of 100 µM and a CC50 (MIA PaCa-2) of 100 µM. It also gave a GI50 (HL-60(TB)) of 100 µM, a TGI (HL-60(TB)) of 100 µM and a GI50 (SF-295) of 76 µM. For the same compound, the TGI (SF-295) was 100 µM, the CC50 (SF-295) was 100 µM and the LC50 (HUVEC) was 100 µM. The TGI (HUVEC) was 100 µM, the GI50 at 48 h [8] was 9.72 µM and the GI50 (DMS-114) was 100 µM. It also gave a TGI (DMS-114) of 100 µM, a CC50 (DMS-114) of 100 µM and a GI50 (HCT-116) of 9.9 µM. It also gave a TGI (HCT-116) of 100 µM, a CC50 (HCT-116) of 100 µM and a GI50 (H69AR) of 100 µM. The TGI (H69AR) was 100 µM, the CC50 (H69AR) was 100 µM and the GI50 (OVCAR-5) was 20 µM. For the same compound, the TGI (OVCAR-5) was 100 µM, the CC50 (OVCAR-5) was 100 µM and the GI50 (MCF7) was 9.9 µM. For the same compound, the TGI (MCF7) was 100 µM, the CC50 (MCF7) was 100 µM and the GI50 (HCT-15) was 21 µM. It also gave a TGI (HCT-15) of 100 µM, a GI50 (PC-3) of 21 µM and a TGI (PC-3) of 100 µM. It also gave a CC50 (PC-3) of 100 µM.

c1ccc(CN2CCN(c3ccc(C(c4ccccc4)C45CC6CC(CC(C6)C4)C5)cc3)CC2)cc1 (stereo not given) gave a GI50 (BXPC-3 [2]) of 7.51 µM, an LC50 (BXPC-3 [2]) of 100 µM and a TGI (BXPC-3 [2]) of 52.1 µM. For the same compound, the Ratio IC50 [3] was 1.9, the GI50 (NCI-H460) was 54.7 µM and the LC50 (concentration killing 50% of cells) (NCI-H460) was 100 µM. It also gave a TGI (NCI-H460) of 100 µM, an IC50 [4] of 0.0633 µM and a GI50 (SK-HEP1) of 23.5 µM. For the same compound, the TGI (SK-HEP1) was 100 µM, the CC50 (SK-HEP1) was 100 µM and the GI50 (MIA PaCa-2) was 14.9 µM. It also gave a TGI (MIA PaCa-2) of 100 µM, a CC50 (MIA PaCa-2) of 100 µM and an IC50 [6] of 0.119 µM. The IC50 [7] was 1.6 µM, the LC50 (HUVEC) was 100 µM and the TGI (HUVEC) was 100 µM. The GI50 at 48 h [8] was 76.8 µM, the CC50 (SF-268) was 100 µM and the GI50 (HCT-116) was 12 µM. It also gave a TGI (HCT-116) of 100 µM, a CC50 (HCT-116) of 100 µM and a GI50 (OVCAR-5) of 84.3 µM. The TGI (OVCAR-5) was 100 µM, the CC50 (OVCAR-5) was 100 µM and the GI50 (MCF7) was 22.3 µM. The TGI (MCF7) was 99.4 µM and the CC50 (MCF7) was 100 µM.
